The results in this text go back to patent US8828992B2, “Substituted azole derivatives, pharmaceutical composition containing the derivatives, and method for treating Parkinson's disease using the same” (priority 2009, dated 2014).

Like-named read-outs stand apart in the source and are kept apart here.

One assay relates to MPTP-induced mouse model. In words: Tail suspension test in MPTP-induced mouse model of Parkinson's disease. In kind it is in vivo. The settings on record: Mus musculus, 168 h; administration concentration 10 (10 mg/kg), oral, 7 days after MPTP; % of control group (Sham); read-out: Mobility (%). The procedure: (§1) A. MPTP (1-methyl-4-phenyl-1,2,3,6-tetrahydropyridine) and drug treatment MPTP (20 mg/kg, free base; Sigma, St. louis, Mo.) was administered to an 8 week old (20-25 g) male C57BL/6 test mouse intraperitoneally three times a day at the interval of 2 hours to construct a model (Breidert et al., 2002; Lichuan Yang, Shuei Sugama, Jason W. Chirichigno, Jason Gregorio, Stefan Lorenzl, Dong H. Shin, Susan E. Browne, Yoshinori Shimizu, Tong H. Joh, M. Flint Beal, l and David S. Alber. (2003) Minocycline Enhances MPTP Toxicity to Dopaminergic Neurons. J Neurosci Res. 74:278-285). In order to observe the protective effects of the compound as a candidate drug, the compound was dissolved in a solution containing 10% dimethylsulfoxide (DMSO), 10% Cremophor, and 40% polyethyleneglycol (PEG), […] treatment. Rasagiline as a control drug was also dissolved in the same solution, and the resulting solution was administered at the same doses in the same manner as above. A control group (Sham) in which MPTP was not administered was constructed by intraperitoneally administering saline solution to the group instead of MPTP in the same manner as above and orally administering the same solution 1 hour before and after PBS treatment.
A tail suspension test was performed in order to measure the induction degree of behavioral dysfunctions in accordance with administration of MPTP and a drug. At 7 days after administration of the drug, a round stainless steel rod (width: 1 cm) was affixed to a cage (width: 16 cm, height: 40 cm) 35 cm above from the surface shielded by black wooden structures in the left and right sides to perform experiments. The time for which the animal moved for a total period of 6 minutes was measured in seconds to evaluate the drug action.
Mobility refers to an expression of the measurement of the time for which the animal moved with its tail hung high as a percentage compared to the measurement of a control group.

The subject of assay [1] is dopamine (DA) in the striata of MPTP-treated mice. The assay is described as follows: Levels of dopamine in the striata of MPTP-treated mice (HPLC). It is filed as in vivo. The settings on record: Mus musculus, po, 168 h, 10 mpk, 7 days after MPTP, read-out: Levels of dopamine (DA) in the striata, compared to a control group %. The procedure: as §1
The changes of contents of dopamine and dopamine metabolites in the striatum in accordance with administrations of MPTP and the drug were measured by high performance liquid chromatography (HPLC). At 7 days after administration of the drug, the animal was sacrificed by cervical vertebra dislocation and the brain tissues were immediately isolated from the animal. 0.5 ml of iced solution for HPLC analysis (0.1 M perchloric acid and 0.1 mM EDTA) was added to a striatum obtained from the isolated brain tissues, and an ultrasonic grinder was used to prepare a tissue homogenate. The tissue homogenate was centrifuged at 12,000 rpm for 15 minutes, and its supernatant was filtered through nitrocellulose membrane filter (0.2 um, Millipore). For HPLC analysis, uBondapak™ C18 column (4.6×150 mm, particle size 10 μm: Shisheido, Japan) was used, the flow rate of the mobile phase (0.07 M monobasic sodium phosphate), 1 mM sodium octasulfonic acid, 0.1 uM EDTA, 5% acetonitrile, pH 3.2) was maintained at 0.7 ml/min, and the electrode potential of the electrochemical detector (ICA-5000, Japan) was set at 700 mV.

For assay [2], the system named is dopamine (DA) in the striatum of a MPTP-treated mouse. In words: Combined administration with Levodopa group: dopamine in the striatum of MPTP-treated mouse (HPLC). It is filed as in vivo. The settings on record: compound 1 mg/kg PO co-administered with Levodopa group (Levodopa 50 mg/kg + Benzerazide 25 mg/kg IP); for Concentration of dopamine compared to a control group %, 1 hr: 1 hr after Levodopa; for Concentration of dopamine compared to a control group %, 3 hr: 3 hr after Levodopa.

Assay [3] concerns the target T1, Monoamineoxidase B type human-derived enzyme (Homo sapiens, UniProt P27338).
T1 sequence (P27338 1-520): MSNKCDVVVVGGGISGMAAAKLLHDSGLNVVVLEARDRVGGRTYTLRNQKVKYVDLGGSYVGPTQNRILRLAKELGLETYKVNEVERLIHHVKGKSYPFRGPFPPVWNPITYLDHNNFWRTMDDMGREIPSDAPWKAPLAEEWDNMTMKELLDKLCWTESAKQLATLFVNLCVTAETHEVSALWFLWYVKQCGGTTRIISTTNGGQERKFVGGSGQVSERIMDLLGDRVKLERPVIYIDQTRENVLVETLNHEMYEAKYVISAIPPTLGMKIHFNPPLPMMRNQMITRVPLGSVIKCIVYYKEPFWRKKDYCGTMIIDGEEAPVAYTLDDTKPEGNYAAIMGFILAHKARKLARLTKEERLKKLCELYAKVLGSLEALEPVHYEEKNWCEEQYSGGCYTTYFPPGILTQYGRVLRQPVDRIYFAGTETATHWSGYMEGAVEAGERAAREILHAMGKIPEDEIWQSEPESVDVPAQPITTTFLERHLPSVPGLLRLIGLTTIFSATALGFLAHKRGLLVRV
In words: Inhibitory effects on the activity of MAO-B (Amplex Red fluorescence, benzylamine substrate). The settings on record: read-out: Inhibitory effects (%) on the activity of MAO-B. It is filed as biochemical. In a few lines:
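Human MAO-B, diluted 1:200 in 0.05 M sodium phosphate pH 7.4, was pre-incubated with compound for 30 min. It was then mixed 1:1 with working buffer holding 400 μM Amplex Red, 2 U/ml HRP and 2 mM benzylamine (working-buffer levels). Fluorescence (Ex 563/Em 587 nm) was read over 30 min.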

Turning to `NC(=O)OCc1cc(-c2ccc(OCc3ccc(Cl)s3)cc2)no1` [Example 62, Carbamic acid 3-[4-(5-chloro-thiophen-2-ylmethoxy)-phenyl]-isoxazol-5-ylmethyl ester], the response vs control in vivo at 10 mg/kg in the assay on MPTP-induced mouse model stood at 97.3%. In addition, the response vs control in vivo at 10 mg/kg in assay [1] stood at 99.1%. Also, in assay [2], the “Concentration of dopamine compared to a control group %, 1 hr” value (from here on “Concentration … to a control group %, 1 hr”) turned out to be 204.8% and the “Concentration of dopamine compared to a control group %, 3 hr” value (“Concentration … to a control group %, 3 hr” for short) was 65.4%. Further, in assay [3], the inhibition at 0.01 µM was 98.6%.

Regarding `NC(=O)OCc1cc(-c2ccc(OCc3ccccc3)cc2)no1` [Example 1, carbamic acid 3-(4-benzyloxy-phenyl)-isoxazole-5-ylmethyl ester], the response vs control in vivo at 10 mg/kg in the assay with MPTP-induced mouse model amounted to 113%. In addition, the response vs control in vivo at 10 mg/kg in assay [1] is 112%. Also, in assay [2], the “Concentration … to a control group %, 1 hr” value is given as 129.5% and the “Concentration … to a control group %, 3 hr” value was 90.8%. In assay [3], the inhibition at 0.01 µM was 96.6%.

`NC(=O)OCc1cc(-c2ccc(OCc3ccc(C=NO)cc3)cc2)no1` [Example 37, carbamic acid 3-{4-[4-(hydroxyimino-methyl)-benzyloxy]-phenyl}-isoxazol-5-ylmethyl ester]: the figures for the response vs control in vivo at 10 mg/kg (with MPTP-induced mouse model; in assay [1]) were 77.5% and 79.2%, respectively. Further, the inhibition at 0.01 µM in assay [3] (treatment concentration 10 nM) amounted to 92.3%.

For `NC(=O)OCc1cc(-c2ccc(OCc3ccccc3)c(Br)c2)no1` [Example 6, carbamic acid 3-(4-benzyloxy-3-bromo-phenyl)-isoxazol-5-ylmethyl ester], the response vs control in vivo at 10 mg/kg in the assay on MPTP-induced mouse model stood at 82.9%. Further, the response vs control in vivo at 10 mg/kg in assay [1] amounted to 112%. In assay [2], the “Concentration … to a control group %, 1 hr” value is recorded as 220.87% and the “Concentration … to a control group %, 3 hr” value was 59.8%. For the same compound, the inhibition at 0.01 µM in assay [3] (treatment concentration 10 nM) came to 90.7%.

Regarding `CCCCCCOc1ccc(-c2cc(COC(N)=O)on2)cc1` [Example 45, carbamic acid 3-(4-hexyloxy-phenyl)-isoxazol-5-ylmethyl ester], the figures for the response vs control in vivo at 10 mg/kg (in the assay with MPTP-induced mouse model; in assay [1]) were 114% and 41.1%, respectively. Moreover, in assay [3], the inhibition at 0.01 µM amounted to 87.6%.

In the case of `Cc1cn(Cc2cc(-c3ccc(OCc4ccccc4)cc3)no2)cn1` [Example 141, 3-(4-benzyloxy-phenyl)-5-(4-methyl-imidazol-1-ylmethyl)-isoxazole], the results for the response vs control in vivo at 10 mg/kg (in the assay on MPTP-induced mouse model; in assay [1]) were 94.6% and 51.2%, respectively. Moreover, in assay [3] (treatment concentration 10 nM), the inhibition at 0.01 µM stood at 92.2%.

In the case of `Fc1cccc(F)c1COc1ccc(-c2cc(Cn3ccnc3)on2)cc1` [Example 143, 3-[4-(2,6-difluoro-benzyloxy)-phenyl]-5-imidazol-1-ylmethyl-isoxazole], the response vs control in vivo at 10 mg/kg with MPTP-induced mouse model came to 98.9%; in assay [1], 46.1%. The inhibition at 0.01 µM in assay [3] (treatment concentration 10 nM) was found to be 98.1%.

Turning to `CNC(=O)OCc1cc(-c2ccc(OCc3ccccc3)cc2)no1` [Example 121, methyl-carbamic acid 3-(4-benzyloxy-phenyl)-isoxazol-5-ylmethyl ester], the response vs control in vivo at 10 mg/kg in the assay on MPTP-induced mouse model worked out at 91.2%. The response vs control in vivo at 10 mg/kg in assay [1] came out at 97.9%. Moreover, in assay [2], the “Concentration … to a control group %, 1 hr” value is recorded as 144.6% and the “Concentration … to a control group %, 3 hr” value was determined as 89.2%. For the same compound, in assay [3] (treatment concentration 10 nM), the inhibition at 0.01 µM worked out at 82.8%.

For `NC(=O)OCc1cc(-c2ccc(OCc3c(Cl)cncc3Cl)cc2)no1` [Example 69, Carbamic acid 3-[4-(3,5-dichloro-pyridin-4-ylmethoxy)-phenyl]-isoxazol-5-ylmethyl ester], the response vs control in vivo at 10 mg/kg in the assay with MPTP-induced mouse model was 97.4%; in assay [1], 100%. For the same compound, the “Concentration … to a control group %, 1 hr” value in assay [2] was 205.2%. Also, the “Concentration … to a control group %, 3 hr” value in assay [2] came out at 200.4%. In addition, the inhibition at 0.01 µM in assay [3] (treatment concentration 10 nM) turned out to be 83.6%.
